Test: xn = mol fraction of the nth substance listed

CCCCCCCCCCCCCC + CCCC(C)O
viscosity [mPa·s], 101.33 kPa
Details | x1 = 0.0999 | x1 = 0.2002 | x1 = 0.3001 | x1 = 0.3987 | x1 = 0.5009 | x1 = 0.6004 | x1 = 0.6996 | x1 = 0.8014 | x1 = 0.9002
293.15 K | 2.923 | 2.557 | 2.314 | 2.191 | 2.117 | 2.1 | 2.114 | 2.141 | 2.177
303.15 K | 2.381 | 2.111 | 1.928 | 1.823 | 1.752 | 1.741 | 1.748 | 1.76 | 1.787
313.15 K | 1.742 | 1.58 | 1.476 | 1.41 | 1.391 | 1.392 | 1.41 | 1.441 | 1.472
323.15 K | 1.362 | 1.266 | 1.192 | 1.152 | 1.148 | 1.153 | 1.171 | 1.21 | 1.24

O=[N+]([O-])c1ccccc1 + CCCC(C)O
viscosity [mPa·s], 100 kPa
Details | x1 = 0.081 | x1 = 0.1601 | x1 = 0.24 | x1 = 0.35 | x1 = 0.4401 | x1 = 0.56 | x1 = 0.6503 | x1 = 0.7402 | x1 = 0.8504 | x1 = 0.9404
293.15 K | 3.323 | 2.827 | 2.444 | 2.095 | 1.931 | 1.863 | 1.867 | 1.914 | 1.999 | 2.054
298.15 K | 2.753 | 2.364 | 2.068 | 1.809 | 1.697 | 1.67 | 1.684 | 1.738 | 1.821 | 1.878
303.15 K | 2.317 | 2.016 | 1.794 | 1.598 | 1.517 | 1.503 | 1.523 | 1.579 | 1.66 | 1.718
308.15 K | 1.993 | 1.776 | 1.608 | 1.454 | 1.385 | 1.36 | 1.377 | 1.421 | 1.497 | 1.568
313.15 K | 1.711 | 1.545 | 1.417 | 1.301 | 1.249 | 1.239 | 1.259 | 1.302 | 1.378 | 1.451
318.15 K | 1.497 | 1.375 | 1.28 | 1.188 | 1.148 | 1.135 | 1.15 | 1.188 | 1.26 | 1.338
323.15 K | 1.311 | 1.227 | 1.159 | 1.089 | 1.055 | 1.044 | 1.057 | 1.091 | 1.16 | 1.238

C=CC(C)(O)CCC=C(C)C (stereo not given) + CCCCCC
298.15 K, 101.33 kPa
Details | viscosity [mPa·s]
x2 = 0.0412 | 3.82
x2 = 0.103 | 3.13
x2 = 0.2546 | 1.952
x2 = 0.3645 | 1.418
x2 = 0.4938 | 0.995
x2 = 0.5828 | 0.792
x2 = 0.6605 | 0.637
x2 = 0.7376 | 0.525
x2 = 0.8069 | 0.445
x2 = 0.8815 | 0.372
x2 = 0.9366 | 0.33
x2 = 0.9766 | 0.306

CCCCCCCC + CCCCCC
viscosity [mPa·s]
Details | x2 = 0.1072 | x2 = 0.2073 | x2 = 0.2375 | x2 = 0.3034 | x2 = 0.4038 | x2 = 0.5101 | x2 = 0.6111 | x2 = 0.7056 | x2 = 0.805 | x2 = 0.9018
294.65 K, 100 kPa | – | – | 0.432 | – | – | – | – | – | – | –
298.15 K, 101.33 kPa | 0.4782 | 0.4598 | – | 0.4414 | 0.4124 | 0.392 | 0.3697 | 0.351 | 0.3326 | 0.3172

CCCCCO + CCCCCC
viscosity [mPa·s], 101 kPa
Details | 298.15 K | 313.15 K
x1 = 0.0122 | 0.302 | –
x1 = 0.0218 | 0.305 | –
x1 = 0.0272 | 0.307 | –
x1 = 0.0424 | 0.312 | –
x1 = 0.0642 | 0.321 | –
x1 = 0.0706 | 0.324 | –
x1 = 0.0889 | 0.333 | –
x1 = 0.0978 | 0.337 | –
x1 = 0.124 | 0.35 | –
x1 = 0.1377 | 0.357 | –
x1 = 0.1474 | 0.362 | –
x1 = 0.1677 | 0.371 | 0.318
x1 = 0.1838 | 0.382 | –
x1 = 0.1966 | 0.39 | –
x1 = 0.2033 | 0.395 | –
x1 = 0.2353 | 0.423 | 0.356
x1 = 0.3342 | 0.518 | 0.427
x1 = 0.4494 | 0.677 | 0.545
x1 = 0.5434 | 0.874 | 0.668
x1 = 0.6407 | 1.19 | 0.893
x1 = 0.7344 | 1.555 | 1.134
x1 = 0.8437 | 2.164 | 1.5
x1 = 0.9129 | 2.715 | 1.843

ClC(Cl)=C(Cl)Cl + CCCCCC
303.15 K, 101 kPa
Details | viscosity [mPa·s]
x1 = 0.1642 | 0.358
x1 = 0.2468 | 0.388
x1 = 0.3358 | 0.432
x1 = 0.4336 | 0.471
x1 = 0.4782 | 0.494
x1 = 0.514 | 0.515
x1 = 0.6464 | 0.591
x1 = 0.7236 | 0.643
x1 = 0.8072 | 0.697
x1 = 0.9346 | 0.776

Reference: the CheMixHub viscosity set
